Experimental data reported in patent US6051683A, “Immune regulating peptides and method of obtaining them” (Immunotech Developments Inc., priority 1995, dated 2000).
Peptide text beside a SMILES is read from it.

Experiments:
[1] = tested on: lymphocytes of the guinea pigs; assay: E-yield (E-POK) of guinea pig lymphocytes after processing with trypsin; type: cell-based; details: untreated animals 66.5, treated with trypsin 36.1
Description: Biological activity of the new peptide was studied on guinea pigs using recognised testing methods of E-yield of lymphocytes of the guinea pigs subsequent to processing with trypsin.
*Each concentration was tested on 5 animals. The positive growth differs
in relation to the control group EPOK is 50% or higher.

[2] = Solubility of the peptide; type: physicochemical
From the text: The peptide obtained by the above formula has the texture of a white powder, which is soluble in water, not completely soluble in alcohol and non soluble on chloroform.
Solubility--Soluble in water, non soluble in chloroform.

Solubility in chloroform ([2]; chloroform): non soluble
Solubility in water ([2]; water): Soluble
SMILES: CC[C@H](C)[C@H](N)C(=O)N[C@@H](CCC(=O)O)C(=O)N[C@@H](Cc1c[nH]c2ccccc12)C(=O)O [Ile-Glu-Trp, H-Ile-Glu-Trp-OH] (H-Ile-Glu-Trp-OH)
QUANTITY E-POK, (%) after treatment with trypsin and compound ([1]; compound concentration 10^-6 mg/ml): 61.4%
QUANTITY E-POK, (%) after treatment with trypsin and compound ([1]; compound concentration 10^-7 mg/ml): 63.9%
QUANTITY E-POK, (%) after treatment with trypsin and compound ([1]; compound concentration 10^-8 mg/ml): 64.8%
QUANTITY E-POK, (%) after treatment with trypsin and compound ([1]; compound concentration 10^-9 mg/ml): 60.2%
QUANTITY E-POK, (%) after treatment with trypsin and compound ([1]; compound concentration 10^-10 mg/ml): 37.5%
QUANTITY E-POK, (%) after treatment with trypsin and compound ([1]; compound concentration 10^-11 mg/ml): 40.0%
QUANTITY E-POK, (%) after treatment with trypsin and compound ([1]; compound concentration 10^-12 mg/ml): 34.3%
